Five compounds from patent US7268126B2, “Polymorphic and amorphous forms of the phosphate salt of 8-fluoro-2-{4-[(methylamino)methyl]phenyl}-1,3,4,5-tetrahydro-6H-azepino[5,4,3-ce]indol-6-one” (Agouron Pharmaceuticals, Inc., priority 2004, dated 2007) can be followed below.

Where two headings read alike, the source gives them in different places.

Data set [1] in a line: physical and chemical storage stability of polymorphic forms. The note with it: for physically stable, duration: ambient condition.
For data set [2] the following is noted: pH 5.4.
[3] abbreviates: 40° C. under 75% relative humidity.

Broadly, the aqueous solubility is the concentration that dissolves in the medium under given conditions. Read a high aqueous solubility as a readily soluble substance. The term Solubility denotes how much of the substance goes into solution per volume. A high value points to much dissolved substance.

With `CNCc1ccc(-c2[nH]c3cc(F)cc4c3c2CCNC4=O)cc1.O=P(O)(O)O` [Form I, phosphate salt of 8-fluoro-2-{4-[(methylamino)methyl]phenyl}-1,3,4,5-tetrahydro-6H-azepino[5,4,3-cd]indol-6-one], the “conversion to Form III (Hydrate B)” value in data set [1] (setting [3]) is listed as “after one week”. In data set [1], the “physically stable, duration” value is given as “at least 3 months”. Further, the aqueous solubility in data set [2] worked out at 2800 µg/mL.
Turning to `CNCc1ccc(-c2[nH]c3cc(F)cc4c3c2CCNC4=O)cc1.O=P(O)(O)O` [Form II, phosphate salt of 8-fluoro-2-{4-[(methylamino)methyl]phenyl}-1,3,4,5-tetrahydro-6H-azepino[5,4,3-cd]indol-6-one], the “conversion to Form III (Hydrate B)” value in data set [1] (25° C. under 90% relative humidity) is listed as “overnight”; in data set [1] (setting [3]), “after 1 week”. For the same compound, the “physically stable, duration” value in data set [1] is given as “at least 3 months”. Moreover, the Solubility reads like this: (pH 3) 460 µg/mL; (pH 4) 390 µg/mL; (pH 5) 370 µg/mL; (pH 6) 320 µg/mL; (pH 7) 250 µg/mL; (pH 8) 190 µg/mL. For the same compound, in data set [2], the aqueous solubility amounted to 3000 µg/mL.
On to `CNCc1ccc(-c2[nH]c3cc(F)cc4c3c2CCNC4=O)cc1.O=P(O)(O)O` [Form III, phosphate salt of 8-fluoro-2-{4-[(methylamino)methyl]phenyl}-1,3,4,5-tetrahydro-6H-azepino[5,4,3-cd]indol-6-one], for which the aqueous solubility in data set [2] was 2700 µg/mL.
The same measure, in the same setting: next, `CNCc1ccc(-c2[nH]c3cc(F)cc4c3c2CCNC4=O)cc1.O=P(O)(O)O` [Form IV, phosphate salt of 8-fluoro-2-{4-[(methylamino)methyl]phenyl}-1,3,4,5-tetrahydro-6H-azepino[5,4,3-cd]indol-6-one]: 4500 µg/mL.
For the compound `CNCc1ccc(-c2[nH]c3cc(F)cc4c3c2CCNC4=O)cc1.O=P(O)(O)O` [Form V, phosphate salt of 8-fluoro-2-{4-[(methylamino)methyl]phenyl}-1,3,4,5-tetrahydro-6H-azepino[5,4,3-cd]indol-6-one], the “physically and chemically stable, duration” value in data set [1] (room temperature) is on record as “at least 3 months”.
